# Assay results taken from US9131692B2, “Antibacterial imidazolium compound and antibacterial photocurable thiol-ene compositions comprising the same, and antibacterial polymer coatins prepared therefrom” (Korea Institute of Science and Technology, priority 2013, dated 2015).
# Counter-ions that a name gives are not always drawn.
# Tests used:
# Format in all cases: cell-based
# [1] = tested on: Salmonella typhimurium (ATCC 1331); assay: MIC test of imidazolium salt
# [2] = tested on: Moraxella catanhalis (ATCC 25240); assay: MIC test of imidazolium salt
# [3] = tested on: Serratia marcescens (ATCC 27117); assay: MIC test of imidazolium salt
# various strains = assay: MIC test of imidazolium salt, overall statement; settings: text summary of Table 7; compared with benzoalconium chloride (BKC)
structure (smiles),measurement,setting,value
"C=CCn1cc[n+](CCCCCCCCCCCC)c1 [ADIm(Br), 1-allyl-3-dodecylimidazolium salt]",ADIm(Br) concentration at which strain has antibiosis,[1],1000 µg/mL
same,ADIm(Br) concentration at which strain has antibiosis,[2],1000 µg/mL
same,ADIm(Br) concentration at which strain has antibiosis,[3],1000 µg/mL
same,antibacterial activity over various strains,various strains,"very excellent antibacterial activity, similar to that of benzoalconium chloride (BKC)"
